Measured values as given in US20250057819A1, “DRUG COMBINATIONS FOR INHIBITING CORONAVIRUS REPLICATION” (priority 2021, published 2025).
Structures can show the parent of a compound that is named as a salt. Where two headings read alike, the source gives them in different places.

Key:
Assay in all cases: microbe, parasite or virus in culture
Assay type in all cases: cell-based
SARS-CoV-2 (Alpha) = conditions: Huh7.5 cells, monotherapy
SARS-CoV-2 (Beta) = conditions: Huh7.5 cells, monotherapy
SARS-CoV-2 = conditions: read-out: SARS-CoV-2 (Vido) EC50
[1] = Severe acute respiratory syndrome coronavirus 2
[2] = Severe acute respiratory syndrome coronavirus 2, Huh7.5

Row | Structure (SMILES) | EC50 (SARS-CoV-2 (Alpha)) | EC50 (SARS-CoV-2 (Beta)) | EC50 (SARS-CoV-2) | EC50 (SARS-CoV-2 (Alpha); [1]) | EC50 (SARS-CoV-2 (Beta); [1]) | EC50 (SARS-CoV-2; [2])
1 | CC(C)C(=O)OC[C@H]1O[C@@H](n2cc/c(=N\O)[nH]c2=O)[C@H](O)[C@@H]1O [Molnupinavir] | 60 nM | 110 nM | 90 nM | – | – | –
2 | Cc1c(O)cccc1C(=O)N[C@@H](CSc1ccccc1)[C@H](O)CN1C[C@H]2CCCC[C@H]2C[C@H]1C(=O)NC(C)(C)C [Nelfinavir mesylate] | – | – | – | 500 nM | 110 nM | 1800 nM
3 | CCN(CC)CCOc1ccc2c(c1)C(=O)c1cc(OCCN(CC)CC)ccc1-2 [Tilorone dihydrochloride] | – | – | – | 250 nM | 190 nM | 930 nM
